{"source": "paper PMC9656787", "about": "“Design, Synthesis and Biological Evaluation of Novel 1,3,5-Triazines: Effect of Aromatic Ring Decoration on Affinity to 5-HT7 Receptor” (International Journal of Molecular Sciences, 2022)", "key": {"[1]": {"test_system": "HepG2 cell line", "experiment": "Hepatotoxicity: HepG2 cell line viability", "format": "cell-based", "settings": "72 h incubation; for cell viability (in words): HepG2, 100 µM; for effect on HepG2 cells at lower concentrations (in words): HepG2, <10 µM", "experimental": "(§1) The tested compounds 2 and 12 were evaluated in terms of cytotoxicity against the HepG2 cell line to assess their hepatotoxic potential (Figure 9). […].\n(§2) All assays were performed according to the protocols described previously.\n(§3) Figure 9 The effect of cytostatic drug doxorubicin and 2 (left), 12 (right) on hepatoma HepG2 cell line viability after 72 h of incubation at 37°, 5% CO2. The statistical significance (GraphPad Prism 8.0.1) was evaluated by a one–way ANOVA, followed by Bonferroni’s Comparison Test (* p < 0.05, ** p < 0.01, and **** p < 0.0001 compared with negative control DMSO 1% in growth media."}, "[2]": {"experiment": "Hepatotoxicity: HepG2 cell line viability", "format": "cell-based", "settings": "human, HepG2 cells; HepG2, 50 µM, 72 h incubation", "experimental": "as §1, §2, §3"}, "[3]": {"biological_target": "T1, 5-HT6 receptor (Homo sapiens, UniProt P50406)", "T1 construct": "host or cells: cell membranes from cultured cells", "T1 sequence (P50406 whole entry)": "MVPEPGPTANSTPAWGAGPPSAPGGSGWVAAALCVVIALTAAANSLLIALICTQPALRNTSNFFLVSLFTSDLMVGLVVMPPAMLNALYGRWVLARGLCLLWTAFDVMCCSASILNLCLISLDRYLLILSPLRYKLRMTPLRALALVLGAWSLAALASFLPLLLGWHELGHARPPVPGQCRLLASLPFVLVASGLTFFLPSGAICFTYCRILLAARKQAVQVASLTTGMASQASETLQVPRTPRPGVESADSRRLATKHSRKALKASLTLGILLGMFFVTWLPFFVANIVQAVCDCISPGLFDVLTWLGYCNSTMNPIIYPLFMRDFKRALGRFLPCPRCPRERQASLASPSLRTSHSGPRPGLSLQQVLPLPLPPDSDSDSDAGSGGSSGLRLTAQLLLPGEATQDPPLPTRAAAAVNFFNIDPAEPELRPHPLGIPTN", "experiment": "Radioligand binding assay, 5-HT6 receptor", "settings": "mean ± SD, triplicate at 7 concentrations, Cheng-Prusoff; read-out: Affinity Ki 5-HT6R", "experimental": "(§4) The affinity of the studied compounds to 5-HT1A, 5-HT2A, 5-HT6, 5-HT7, and D2 receptors was evaluated by a radioligand assay, as reported previously (Table 1). Each compound was tested in triplicate at seven concentrations (from 0.1 nM to 100 µM). Inhibition constants (Ki) were calculated from the Cheng–Prusoff equation [23].\n(§5) The cell culture, cell membranes, and radioligand binding assays were performed in accordance with standard protocols."}, "[4]": {"test_system": "Danio rerio", "experiment": "In vivo cardiotoxicity (heart rate, malformations) in zebrafish embryos", "settings": "96 h", "experimental": "(§6) The compounds were evaluated for their ecotoxicity on the Danio rerio experimental model. OECD 236 test with modifications was applied. Both compounds were found cardiotoxic within the non-toxic range, based on the heart rate measurement. For the compound 2, 5 µg/mL was found cardiotoxic (Figure 10) and for 12, 7.5 µg/mL (Figure 11). The results were confirmed by malformations observation. […] Moreover, scoliosis (S) and tail autophagy (TA) were also noted.\nTo determine the toxicity of the compounds, the fish embryo toxicity (FET) test was performed on zebrafish (Danio rerio) according to OECD Test Guideline 236. The collected embryos were transferred to a Petri dish with E3 medium (5 mM NaCl, 0.33 mM MgCl2, 0.33 mM CaCl2, 0.17 mM KCl; pH 7.2) and then placed in 6-well plates, 10 embryos per well. Stock solutions 2 and 12 were prepared in DMSO. In these experiments, the range of different concentrations of the solutions was prepared by dissolving stock solutions in the E3 medium each time directly before addition to the wells. The solutions were changed once daily, and the embryos were maintained in the incubator at 28.5 °C. At the end of the exposure period (96 hpf–hours postfertilization), acute toxicity was determined based on a positive outcome in any of the four visual indicators of lethality, including the coagulation of fertilized eggs, lack of somite formation, lack of detachment of the tailbud from the yolk sac and lack of heartbeat. The value of LD50 was calculated. Heartbeats were recorded to observe cardiotoxic effects. Moreover, images of the fish from each group were taken at the final time point to monitor the occurrence of developmental malformations. For the observations, a Discovery V8 Stereo optical microscope and Zeiss hardware were used. A dose-response curve was generated using Prism 8.0.1 (GraphPad Software) by fitting a sigmoid curve model to experimental data points. The concentrations of the compounds of interest causing 50% mortality (LD50) of 96 hpf larvae of Danio rerio were calculated."}, "[5]": {"experiment": "Metabolic stability in mouse liver microsomes (MLMs), UHPLC-MS", "format": "in vitro ADME", "settings": "for Metabolic Pathway: metabolites M1, M2 ... in order, after incubation with MLMs; for remaining at 2 h: mouse, liver microsomes; for remaining at 2 h / % Remaining: original compound remaining after 2 h (120 min) incubation with MLMs", "experimental": "It seems, however, that substituents at the B ring of the ligands have a more important role. […] The data correspond to our previous results, in which substituents at the B ring increased metabolic stability. Potential sites in the molecules sensitive to enzyme activity and leading to degradation were proposed using an in silico approach, also with MetaSite 6.0.1 (Figure 7).\nas §2"}, "[6]": {"biological_target": "T2, 5-HT7 receptor (Homo sapiens, UniProt P34969)", "T2 construct": "host or cells: cell membranes from cultured cells", "T2 sequence (P34969 1-432 limits assumed)": "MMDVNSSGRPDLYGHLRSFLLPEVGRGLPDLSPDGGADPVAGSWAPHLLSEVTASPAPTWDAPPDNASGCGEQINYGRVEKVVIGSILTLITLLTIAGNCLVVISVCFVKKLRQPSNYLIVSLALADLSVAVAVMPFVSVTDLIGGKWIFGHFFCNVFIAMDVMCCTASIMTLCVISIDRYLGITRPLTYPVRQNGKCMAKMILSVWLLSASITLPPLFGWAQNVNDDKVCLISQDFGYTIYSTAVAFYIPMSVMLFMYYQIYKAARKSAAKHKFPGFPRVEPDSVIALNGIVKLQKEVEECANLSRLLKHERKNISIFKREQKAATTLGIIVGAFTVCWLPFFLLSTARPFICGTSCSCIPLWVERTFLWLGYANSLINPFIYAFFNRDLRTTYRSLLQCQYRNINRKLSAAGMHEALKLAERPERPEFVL", "experiment": "Radioligand binding assay, 5-HT7 receptor", "settings": "for Ki: mean ± SD, triplicate at 7 concentrations, Cheng-Prusoff, read-out: Affinity Ki 5-HT7R", "experimental": "as §4, §5"}, "[7]": {"biological_target": "T3, 5-HT1A receptor (Homo sapiens, UniProt P08908)", "T3 construct": "host or cells: cell membranes from cultured cells", "T3 sequence (P08908 1-422)": "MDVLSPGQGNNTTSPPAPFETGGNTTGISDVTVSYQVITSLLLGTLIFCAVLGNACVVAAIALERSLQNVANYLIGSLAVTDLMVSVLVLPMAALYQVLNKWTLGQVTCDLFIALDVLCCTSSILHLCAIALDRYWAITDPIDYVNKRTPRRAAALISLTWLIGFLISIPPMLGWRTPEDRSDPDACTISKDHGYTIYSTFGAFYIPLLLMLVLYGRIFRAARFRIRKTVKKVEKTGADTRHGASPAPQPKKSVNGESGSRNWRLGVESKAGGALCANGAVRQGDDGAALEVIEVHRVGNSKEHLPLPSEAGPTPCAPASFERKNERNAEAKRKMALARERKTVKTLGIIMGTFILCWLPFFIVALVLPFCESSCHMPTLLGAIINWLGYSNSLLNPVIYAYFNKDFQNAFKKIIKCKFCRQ", "experiment": "Radioligand binding assay, 5-HT1A receptor", "settings": "mean ± SD, triplicate at 7 concentrations, Cheng-Prusoff; read-out: Affinity Ki 5-HT1AR", "experimental": "as §4, §5"}, "[8]": {"test_system": "Danio rerio", "experiment": "Fish embryo toxicity (FET) test, OECD 236, mortality", "format": "in vivo", "settings": "96 hpf larvae, 96 h incubation at 28 °C", "experimental": "as §6\nTo determine the toxicity of the compounds, the fish embryo toxicity (FET) test was performed on zebrafish (Danio rerio) according to OECD Test Guideline 236. The collected embryos were transferred to a Petri dish with E3 medium (5 mM NaCl, 0.33 mM MgCl2, 0.33 mM CaCl2, 0.17 mM KCl; pH 7.2) and then placed in 6-well plates, 10 embryos per well. Stock solutions 2 and 12 were prepared in DMSO. […] At the end of the exposure period (96 hpf–hours postfertilization), acute toxicity was determined based on a positive outcome in any of the four visual indicators of lethality, including the coagulation of fertilized eggs, lack of somite formation, lack of detachment of the tailbud from the yolk sac and lack of heartbeat. The value of LD50 was calculated. Heartbeats were recorded to observe cardiotoxic effects. […]"}, "[9]": {"biological_target": "T4, 5-HT2A receptor (Homo sapiens, UniProt P28223)", "T4 construct": "host or cells: cell membranes from cultured cells", "T4 sequence (P28223 whole entry)": "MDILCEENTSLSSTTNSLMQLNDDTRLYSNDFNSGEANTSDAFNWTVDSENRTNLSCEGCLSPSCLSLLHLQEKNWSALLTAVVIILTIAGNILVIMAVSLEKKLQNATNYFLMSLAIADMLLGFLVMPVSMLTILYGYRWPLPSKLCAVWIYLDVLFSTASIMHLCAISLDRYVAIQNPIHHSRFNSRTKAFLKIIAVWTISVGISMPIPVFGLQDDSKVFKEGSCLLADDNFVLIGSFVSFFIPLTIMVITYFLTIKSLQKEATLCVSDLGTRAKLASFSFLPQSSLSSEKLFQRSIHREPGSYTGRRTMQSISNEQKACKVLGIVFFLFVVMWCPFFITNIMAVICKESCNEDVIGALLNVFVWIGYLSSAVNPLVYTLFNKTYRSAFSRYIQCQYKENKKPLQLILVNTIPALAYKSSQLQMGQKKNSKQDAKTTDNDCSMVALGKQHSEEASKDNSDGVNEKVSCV", "experiment": "Radioligand binding assay, 5-HT2A receptor", "settings": "mean ± SD, triplicate at 7 concentrations, Cheng-Prusoff; read-out: Affinity Ki 5-HT2AR", "experimental": "as §4, §5"}, "[10]": {"biological_target": "CYP3A4 (Homo sapiens, UniProt P08684)", "sequence (P08684 whole entry)": "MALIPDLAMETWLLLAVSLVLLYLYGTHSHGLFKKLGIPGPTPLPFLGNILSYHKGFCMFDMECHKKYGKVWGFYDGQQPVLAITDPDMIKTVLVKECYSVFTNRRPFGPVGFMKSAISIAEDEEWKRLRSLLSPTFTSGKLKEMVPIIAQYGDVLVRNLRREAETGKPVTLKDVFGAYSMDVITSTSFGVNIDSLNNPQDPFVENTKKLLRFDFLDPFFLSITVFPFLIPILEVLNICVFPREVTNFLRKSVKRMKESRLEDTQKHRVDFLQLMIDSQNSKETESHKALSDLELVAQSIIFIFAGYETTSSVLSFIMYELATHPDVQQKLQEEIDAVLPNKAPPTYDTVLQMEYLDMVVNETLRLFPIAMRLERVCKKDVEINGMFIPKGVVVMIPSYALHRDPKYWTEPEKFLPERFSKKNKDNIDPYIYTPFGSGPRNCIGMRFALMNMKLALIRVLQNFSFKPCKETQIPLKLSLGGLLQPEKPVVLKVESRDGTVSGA", "experiment": "CYP3A4 activity (drug-drug interaction) assay", "format": "in vitro ADME", "settings": "for inhibition activity toward CYP3A4 (in words): compound at 1 µM (concentration of ketoconazole) or lower; for %CYP3A4 activity: negative control = 100%", "experimental": "Potential drug–drug interactions (DDIs) are an important aspect that should be considered when designing new compounds. Isoenzyme CYP3A4 is one of the varieties of enzymes responsible for xenobiotic metabolism. We evaluated active compounds 2 and 12 in terms of affinity toward this isoenzyme (Figure 8).\nas §2\nFigure 8 The influence of 2 (left), 12 (right), and ketoconazole (KE) on CYP3A4 activity. Statistical significance (** p < 0.01, **** p < 0.0001) was analyzed by Graph Pad Prism 8.0.1 software using One-way ANOVA and Bonferroni’s Multiple Comparison Post Test in comparison with the negative control (100% of CYP3A4 activity). The compounds were examined in triplicate."}, "[11]": {"biological_target": "T5, D2 receptor (Homo sapiens, UniProt P14416)", "T5 construct": "host or cells: cell membranes from cultured cells", "T5 sequence (P14416 whole entry)": "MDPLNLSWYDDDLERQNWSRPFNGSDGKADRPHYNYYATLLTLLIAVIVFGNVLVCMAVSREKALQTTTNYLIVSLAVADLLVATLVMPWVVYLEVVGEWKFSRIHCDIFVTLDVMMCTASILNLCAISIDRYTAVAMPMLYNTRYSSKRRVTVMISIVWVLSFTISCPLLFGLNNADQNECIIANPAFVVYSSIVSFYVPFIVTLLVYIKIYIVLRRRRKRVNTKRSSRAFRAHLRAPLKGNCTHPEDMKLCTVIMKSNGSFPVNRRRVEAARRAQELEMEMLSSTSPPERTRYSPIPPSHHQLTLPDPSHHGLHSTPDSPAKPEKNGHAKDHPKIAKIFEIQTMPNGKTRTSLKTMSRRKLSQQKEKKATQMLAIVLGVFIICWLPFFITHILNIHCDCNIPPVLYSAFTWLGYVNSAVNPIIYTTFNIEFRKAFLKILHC", "experiment": "Radioligand binding assay, D2 receptor", "settings": "mean ± SD, triplicate at 7 concentrations, Cheng-Prusoff; read-out: Affinity Ki D2R", "experimental": "as §4, §5"}}, "data": [{"molecule": "Cl.Nc1nc(NCCc2ccccc2)nc(NCCc2c[nH]c3ccc(F)cc23)n1", "note": "[Compound 2, N^2-(2-(5-Fluoro-1H-Indol-3-yl)ethyl)-N^4-Phenethyl-1,3,5-Triazine-2,4,6-Triamine Hydrochloride]", "values": [{"measurement": "cell viability (in words)", "setting": "[1]", "value": "practically no viable"}, {"measurement": "effect on HepG2 cells at lower concentrations (in words)", "setting": "[1]", "value": "proliferative activity"}, {"measurement": "viability at 72 h, 50 µM", "setting": "[2]", "value": 35, "unit": "%"}, {"measurement": "Ki", "setting": "[3]", "value": "0.505 ± 0.061", "unit": "µM"}, {"measurement": "concentration at which pericardial edema (PE) was observed", "setting": "[4]", "value": 5000, "unit": "ng/mL"}, {"measurement": "concentration found cardiotoxic (heart rate measurement)", "setting": "[4]", "value": 5000, "unit": "ng/mL"}, {"measurement": "Metabolic Pathway", "setting": "[5]", "value": "hydroxylation ketone formation double hydroxylation dehydrogenation dehydrogenation double hydroxylation hydroxylation ketone formation and hydroxylation hydroxylation"}, {"measurement": "remaining at 2 h", "setting": "[5]", "value": 20, "unit": "%"}, {"measurement": "% Remaining", "setting": "[5]", "value": 19.79, "unit": "%"}, {"measurement": "Ki", "setting": "[6]", "value": "0.008 ± 0.002", "unit": "µM"}, {"measurement": "Ki", "setting": "[7]", "value": 13.9, "unit": "µM"}, {"measurement": "LD50 (mortality)", "setting": "[8]", "value": 4.869, "unit": "µg/mL"}, {"measurement": "Ki", "setting": "[9]", "value": "0.413 ± 0.067", "unit": "µM"}, {"measurement": "inhibition activity toward CYP3A4 (in words)", "setting": "[10]", "value": "no or slight inhibition activity"}, {"measurement": "%CYP3A4 activity", "setting": "[10]; compound at 10 µM", "value": 50, "unit": "%"}, {"measurement": "%CYP3A4 activity", "setting": "[10]; compound at 25 µM", "value": "< 15", "unit": "%"}]}, {"molecule": "Cl.Nc1nc(NCCNc2ccc(F)cc2)nc(NCCc2c[nH]c3ccccc23)n1", "note": "[Compound 12, N^2-(2-(1H-Indol-3-yl)ethyl)-N^4-(2-((4-Fluorophenyl)amino)ethyl)-1,3,5-Triazine-2,4,6-Triamine Hydrochloride]", "values": [{"measurement": "Ki", "setting": "[11]", "value": "3 ± 0.679", "unit": "µM"}, {"measurement": "cell viability (in words)", "setting": "[1]", "value": "practically no viable"}, {"measurement": "effect on HepG2 cells at lower concentrations (in words)", "setting": "[1]", "value": "proliferative activity"}, {"measurement": "viability at 72 h, 50 µM", "setting": "[2]", "value": 20, "unit": "%"}, {"measurement": "Ki", "setting": "[3]", "value": "1.63 ± 0.301", "unit": "µM"}, {"measurement": "concentration at which pericardial edema (PE) was observed", "setting": "[4]", "value": 7500, "unit": "ng/mL"}, {"measurement": "concentration found cardiotoxic (heart rate measurement)", "setting": "[4]", "value": 7500, "unit": "ng/mL"}, {"measurement": "Metabolic Pathway", "setting": "[5]", "value": "decomposition hydroxylation dehydrogenation dehydrogenation double hydroxylation hydroxylation dehydrogenation"}, {"measurement": "remaining at 2 h", "setting": "[5]", "value": 29, "unit": "%"}, {"measurement": "% Remaining", "setting": "[5]", "value": 29.12, "unit": "%"}, {"measurement": "activity with respect to 5-HT7R (in words)", "setting": "[6]; SAR discussion of radioligand data", "value": "active"}, {"measurement": "Ki", "setting": "[6]", "value": "0.018 ± 0.003", "unit": "µM"}, {"measurement": "Ki", "setting": "[7]", "value": 43.3, "unit": "µM"}, {"measurement": "LD50 (mortality)", "setting": "[8]", "value": 16.95, "unit": "µg/mL"}, {"measurement": "Ki", "setting": "[9]", "value": "3.57 ± 0.491", "unit": "µM"}, {"measurement": "inhibition activity toward CYP3A4 (in words)", "setting": "[10]", "value": "no or slight inhibition activity"}, {"measurement": "%CYP3A4 activity", "setting": "[10]; compound at 10 µM", "value": 20, "unit": "%"}, {"measurement": "%CYP3A4 activity", "setting": "[10]; compound at 25 µM", "value": "< 15", "unit": "%"}]}]}
